Experimental data published in patent US7709004B2, “Method of producing an HIV-1 immune response” (Bionor Immuno AS, priority 1999, dated 2010).
Bridge positions count the residues as written; N and C are the ends. Ends that are not written are not given here. I, II: the chains in the order shown.

Test system: NMFI female mice
Experiment: toxicity of the dipeptide by injection to mice
Format: in vivo
Details: 100 μg per kg bodyweight, test solution 4 mg/ml in 0.9% NaCl
Description: The dipeptide of Example 13 was diluted in 0.9% NaCl) to a test solution concentration of 4 mg/ml. The peptide was administered by injection to NMFI female mice in a dose of 100 μg per kg bodyweight.

Substance: I: WIIPGLNPLVGGGKLYSPTSILCG-NH2 / II: KALGPGATLQTPWTACQGVG-NH2 (disulfide I:23-II:16) [Example 13]
- toxicological effects: No toxicological effects were observed
